No end group written: not given here.
Columns and labels:
[1] = system: BP1-151HSA conjugate (MUC1 24 amino acid peptide conjugated to HSA); test: Anti-MUC1 IgG levels (serum ELISA) in MUC1 transgenic mice, BP1-151 HSA solid phase; type: in vivo, C57Bl/6 MUC1 transgenic mice; conditions: Protocol 1347C, 4 immunizations, individual mouse
Description: To further characterize the observed phenomenon, MUC I transgenic mice were immunized with MUC I based liposomal formulations containing mono- or dilipopeptides.

[2] = system: BP1-151HSA conjugate (MUC1 24 amino acid peptide conjugated to HSA); test: Anti-MUC1 antibody levels (serum ELISA) after immunization, BP1-151-HSA solid phase; type: in vivo, C57BL/6 mice; conditions: for antibody levels / humoral immunity (in words): immunized mice, liposomal formulations containing lipid A adjuvant
Protocol: (§1) MUC1 based liposomal vaccines (“BLP25 liposomal vaccines”) at a dose of 100 μg (250 μl) was injected subcutaneously, two, three, or four times, at biweekly intervals, into right and left inguinal regions (125 μl per each site).

[3] = system: Blend C (natural human MUC1 mucin purified from ovarian cancer ascites); test: Anti-MUC1 antibody levels (serum ELISA) after immunization, Blend C solid phase; type: in vivo; conditions: Protocol 1346; C57Bl/6 mice immunized two times, subcutaneously; individual mouse
Protocol: as §1

Sequence of Blend C (natural human MUC1 mucin purified from ovarian cancer ascites) (P15941 24-1255): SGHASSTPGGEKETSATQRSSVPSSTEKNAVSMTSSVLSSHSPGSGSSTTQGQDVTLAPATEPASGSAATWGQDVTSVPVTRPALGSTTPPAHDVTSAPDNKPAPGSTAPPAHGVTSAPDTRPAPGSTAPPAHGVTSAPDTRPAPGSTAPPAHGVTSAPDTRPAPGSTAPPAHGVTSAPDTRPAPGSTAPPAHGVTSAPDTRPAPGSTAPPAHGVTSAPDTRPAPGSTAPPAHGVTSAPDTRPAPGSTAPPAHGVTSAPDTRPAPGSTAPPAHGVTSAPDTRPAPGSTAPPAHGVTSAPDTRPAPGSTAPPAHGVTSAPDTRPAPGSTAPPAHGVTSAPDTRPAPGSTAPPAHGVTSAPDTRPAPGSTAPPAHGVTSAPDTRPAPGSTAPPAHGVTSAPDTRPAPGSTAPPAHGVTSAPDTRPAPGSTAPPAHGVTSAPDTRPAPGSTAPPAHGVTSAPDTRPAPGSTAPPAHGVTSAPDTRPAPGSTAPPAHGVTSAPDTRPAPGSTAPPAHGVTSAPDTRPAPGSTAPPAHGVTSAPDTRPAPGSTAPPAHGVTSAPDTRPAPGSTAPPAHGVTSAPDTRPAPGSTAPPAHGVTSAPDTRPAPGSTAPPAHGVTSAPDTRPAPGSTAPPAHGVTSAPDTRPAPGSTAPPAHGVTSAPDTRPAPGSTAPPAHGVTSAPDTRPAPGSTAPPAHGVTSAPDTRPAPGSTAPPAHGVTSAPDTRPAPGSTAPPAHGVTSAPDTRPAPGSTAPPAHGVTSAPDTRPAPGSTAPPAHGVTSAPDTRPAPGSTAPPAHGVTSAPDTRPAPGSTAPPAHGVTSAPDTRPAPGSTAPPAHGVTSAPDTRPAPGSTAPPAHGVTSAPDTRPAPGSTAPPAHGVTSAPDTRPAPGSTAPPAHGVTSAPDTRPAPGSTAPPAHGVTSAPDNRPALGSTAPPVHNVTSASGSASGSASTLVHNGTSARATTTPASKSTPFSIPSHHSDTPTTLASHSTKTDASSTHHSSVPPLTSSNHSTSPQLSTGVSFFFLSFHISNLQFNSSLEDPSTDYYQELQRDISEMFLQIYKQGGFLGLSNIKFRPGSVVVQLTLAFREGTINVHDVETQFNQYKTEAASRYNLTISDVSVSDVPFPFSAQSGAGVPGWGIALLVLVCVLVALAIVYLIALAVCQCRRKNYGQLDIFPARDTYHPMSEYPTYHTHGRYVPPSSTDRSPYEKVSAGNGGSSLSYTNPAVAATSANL

GVTSAPDTRPAPGSTAS(myristyl)S(myristyl)L [BP1-217]
Antibody Titer, IgG, BP1-151 HSA [1]: strong IgG antibody response

GVTSAPDTRPAPGSTAS(myristyl)L [BP1-228]
Antibody Titer, IgG, BP1-151 HSA [1]: very low titers of IgG
Antibody Titer, IgG, BP1-151-HSA ([2]; Protocol 1346, C57Bl/6 mice immunized two times, subcutaneously, individual mouse): only low titers
antibody levels / humoral immunity (in words) [2]: very low or no antibody levels
Antibody Titer, IgG, Blend C [3]: no antibodies were detected

TAPPAHGVTSAPDTRPAPGSTAPPK(palmitate)K(palmitate)G [BP1-132A]
antibody levels / humoral immunity (in words) [2]: induce humoral immunity
